Assay results reported in patent US20260265691A1, “METHODS TO IMPROVE THE PERSISTENCE OF DOUBLE NEGATIVE T CELLS” (priority 2022, published 2026).

Assays:
DNTs [1] = assay: Effect of JQ1 on memory status of DNTs (flow cytometry of CD27, CD62L, CD45RA); format: cell-based, human; conditions: JQ1 0.075, 0.15, 0.30 μM for 20 days; day 14, 17 and 20 of DNT expansion
Description: JQ1 was given to the culture on day 0, 3, 7, 10, 14, and 17.

conventional T cells = conditions: Kagoya et al. 2016; cited from earlier work
DNTs [2] = assay: Exhaustion marker expression on DNTs (flow cytometry); format: cell-based, human
Description: FIGS. 7A-7G. […] Representative flow plot is shown (Left). The numbers represent the MFI value (Right). […] Horizontal bars represent the mean relative MFI and error bars show SEM. (FIG. 7C) Expression of exhaustion associated transcription factor gene, TOX, relative to the expression of housekeeping gene, HPRT, determined by qPCR. Each paired symbol represents DNTs from one individual. […] Subsequently, cells were intracellularly stained with anti-TNFα and anti-IFNγ antibodies, and the expression levels were determined by flow cytometry. Representative flow plot is shown (Left). The numbers represent the frequency in each gate. […] The result shown is a summary of three experiments. (FIG. 7E) Frequency of viable ctrl-DNTs and Ide-DNTs on day 17 of expansion. The cell viability was determined with Annexin V and 7-AAD staining using flow cytometry. […] (FIG. 7F) Viability of ctrl-DNTs and Ide-DNTs after co-culture with primary AML cells from 7 different patients. […]
The following antibodies were used in this study: CD4-FITC or -APCcy7, CD56-PE, CD3-PEcy7 or -Alexa Flour700, CD8-APC or -APCcy7, CD45RA-FITC, CD95-APC, CD62L-PEcy7, CTLA4-PE, LAG3-PEcy7, TIM3-APC, CD45-FITC or -APCcy7, CD34-PE, CD33-APC, AnnexinV-Pacific Blue or -FITC, 7AAD, IFNy-PE, TNFα-APC and DAPI. […] Data were obtained using Attune NXT flow Cytometer (ThermoFisher) and analyzed with Flowjo software (Tree Star, Inc.).

DNTs [3] = assay: Ex vivo DNT expansion in increasing concentrations of Ide; format: cell-based, human
Protocol: DNT was obtained and expanded as previously reported in the presence or absence of Ide (Selleckchem). Briefly, blood from healthy donor was collected in sodium heparin containing vacutainers (Becton, Dickinson and Company). Then, CD4^+ and CD8^+ T cells were depleted from healthy donor-derived PBMCs by incubating whole blood with RosetteSep human CD4 and CD8 depletion cocktail (StemCell Technologies) followed by density gradient centrifugation to collect CD4 and CD8 depleted buffy coats.

DNTs [4] = assay: Memory status of ex vivo expanded DNTs (CD45RA, CD62L flow cytometry); format: cell-based, human; conditions: end of expansion (day 17)
Description: (FIG. 6A) Representative flow plots showing memory status. […] Tnaive/SCM=CD45RA^+CD62L^+; TCM=CD45RA^−CD62L^+; TEM=CD45RA^−CD62L; Teffector=CD45RA^+CD62L^−. (FIG. 6B) Frequency of DNTs in early memory subset TCM/SCM (CD45RA^+/CD62L^+ and CD45RA^−CD62L^+; left), TEM (CD45RA^−CD62L^−; middle) and TEFF (CD45RA^+CD62L^−; right) from day 7 to day 17 of ex vivo DNT expansion culture. […] Each dot represents DNTs from one donor. The cell number is normalized to day 0 DNT number. […] The expression shown is relative to the expression of housekeeping gene, HPRT. Each paired symbols represent DNTs from one donor. […] Expansion fold relative to the number of DNTs at the start of co-culture was determined after 2 days and 8 days (Left). Absolute number of viable DNTs from each treatment group after co-culture with OCI-AML3 (Right). […] (FIG. 6F) Memory status of DNTs 8 days post co-culture with OCI-AML3 determined by flow-cytometry. […]

DNTs [5] = assay: DNT viability (Annexin V, 7-AAD flow cytometry); format: cell-based, human; conditions: 5 healthy donors, day 17
Protocol: The result shown is a summary of three experiments. […] The cell viability was determined with Annexin V and 7-AAD staining using flow cytometry. […] Subsequently, the viability of DNTs (gated on CD45^high CD3^+CD33/CD34^−) were determined using flow cytometry. […] Each paired symbol represents DNTs from one donor.
and viability of effector cells was calculated by 100-% AnnexinV^+ in cultures of DNTs with AML.

[6] = autoimmune toxicities, infection, diarrhea, skin problems; cited from earlier work
DNTs [7] = assay: CD69 expression on ex vivo expanded DNTs; format: cell-based, human; conditions: 0, 1 and 5 μM Ide; day 7, 10 and 17
Protocol: Frequency of CD69 expression from day 7, 10 and 17 ex vivo expanded DNTs in 0, 1 and 5 μM of de.

| Structure (SMILES) | memory formation of DNTs across treatment groups (DNTs [1]) | inducing memory phenotype on conventional T cells (conventional T cells) | expression of inhibitory receptor Lag3 on DNTs compared to ctrl-DNTs (DNTs [2]) | expression of inhibitory receptor Tim3 on DNTs compared to ctrl-DNTs (DNTs [2]) | DNT viability at the end of cell expansion cultures (DNTs [3]; 1 μM Ide) | cell yield at the end of expansion compared to vehicle control (DNTs [3]; 0.1-1.0 μM Ide) | DNT expansion (DNTs [3]; 3.0-10.0 μM of Ide) | TCM/TSCM cell number, fold higher compared to ctrl-DNTs (DNTs [4]) [fold] | viability of DNTs after expansion (DNTs [5]) | adverse events associated with Ide-treatment [6] | CD69 expression (DNT activation signal) (DNTs [7]) |
| --- | --- | --- | --- | --- | --- | --- | --- | --- | --- | --- | --- |
| Cc1sc2c(c1C)C(c1ccc(Cl)cc1)=N[C@@H](CC(=O)OC(C)(C)C)c1nnc(C)n1-2 [JQ1] | no biologically meaningful differences | top hit amongst 31 chemicals tested |  |  |  |  |  |  |  |  |  |
| CC[C@H](Nc1ncnc2[nH]cnc12)c1nc2cccc(F)c2c(=O)n1-c1ccccc1 [Ide, 5-fluoro-3-phenyl-2-[(1S)-1-(7H-purin-6-ylamino)propyl]quinazolin-4-one] |  |  | reduced the expression | reduced the expression | highest DNT viability | improved cell yield | compromised | 3.87±0.82 | significantly improved the viability | severe adverse events | reduced levels of CD69 expression in a dose-dependent manner |
